Experimental data reported in a melting point compilation (Tetko et al.; mined from patent text by program, amines drawn as free bases though some values may be those of a salt).

| SMILES | melting point |
| --- | --- |
| CNc1cc2c(c(C)c1F)c(=O)c(C(=O)O)cn2-c1cc(N)c(F)cc1F | > 270 °C |
| CN1c2nnnn2-c2ccc(Cl)cc2C1c1ccccc1 (centres undefined) | 280 °C |
| CCOC(=O)Nc1cc([N+](=O)[O-])cc(CC)c1C(=O)OCC | 47 to 48 °C |
| ON=Cc1ccc(Sc2ccccc2)cc1 | 74 to 76 °C |
| Cc1noc(C)c1CN1C(=O)C2(COc3cc4c(cc32)OCO4)c2ccccc21 (centres undefined) | 165 to 167 °C |
| CC(C)Oc1ccc(-n2c(-c3ccc(C(=O)O)cc3)c(C(=O)O)c3cc(Oc4ccc(Cl)cc4)ccc32)cc1 | 217 to 222 °C |
| O=C(O)C1Cc2ccc(Cl)cc2NC1=O (centres undefined) | 158 to 160 °C |
| CCOC(=O)c1c(-c2ccc(Cl)cc2)[nH]c(C(F)(F)F)c1C(F)(F)F | 138 to 140 °C |
| CN1CCN(c2cccc(C(=O)N3CC=C(c4ccccc4F)CC3)n2)CC1 | 177 °C |
| CN(C)Cc1ccc(-c2csc(NC(=N)N)n2)o1 | > 200 °C |
| Cn1ccnc1Sc1ccc(Nc2c(C#N)cnc3cc(/C=C/CN4CCCC4)ccc23)cc1Cl | 182 to 190 °C |
| COc1nc(C#N)c(C#N)[nH]1 | 137 to 138 °C |
| CN(CC(=C1NCCCS1)[N+](=O)[O-])c1ccccc1 | 105 to 106 °C |
| C[C@@H]1N[C@H](c2ccccc2)COC1=O | 82 to 83 °C |
| COc1ccc(C(=O)NCC(O)CC(=O)O)cc1OCc1ccccc1 (centres undefined) | 158 to 160 °C |
| COC(=O)C=Cc1ccc(OCCc2nc(-c3ccccc3)oc2C)cc1 | 114 to 115 °C |
| Cc1cc(C2=NOC(c3cc(Cl)cc(Cl)c3)(C(F)(F)F)O2)ccc1C(=O)O (centres undefined) | 114 to 134 °C |
| CC(C)(C)OC(=O)CC[C@@H](NC(=O)OCc1ccccc1)c1nnn[nH]1 | 99 to 101 °C |
| CC(C)(C)c1ccc(C(=O)NCc2ccc3c(c2)CN(C2CCC(=O)NC2=O)C3=O)cc1 (centres undefined) | 238 to 240 °C |
| Oc1ccc2c(-c3ccccc3F)noc2c1I | 212 to 214 °C |
| COC(=O)c1nc(C)c(-c2ccncc2)s1 | 121 to 123 °C |
| COC(=O)C1Cc2c([nH]c3ccccc23)C(c2ccccc2Cl)N1 (centres undefined) | 154 °C |
| CC(C)(C)c1cc(-c2cncc(C3SC(N4CCOCC4)=NC3=O)c2)ccc1O (centres undefined) | 231 to 234 °C |
| Nc1ccc(Oc2ccc(C34CC5CC(C3)CC(c3ccc(Oc6ccc(N)c(O)c6)cc3)(C5)C4)cc2)cc1O | 166 to 169 °C |

| SMILES | melting point |
| --- | --- |
| O=C(CC1CC1)NC[C@H]1CN(c2ccc3c(c2)CCCc2cnoc2-3)C(=O)O1 | 187 to 191 °C |
| O=C(Nc1cc2ncc(CN3CCCC3)cc2cc1F)c1ccc(-c2ccccc2)cc1F | 163 to 164 °C |
| COCc1cc2c(s1)CCCc1cc(=O)n(-c3ccc(Cl)cc3)nc1-2 | 135 to 137 °C |
| Cc1ccc(S(=O)(=O)N2CC2CCOS(C)(=O)=O)cc1 (centres undefined) | 78 to 80 °C |
| COc1cc2ncc(C#N)c(Nc3cccc(CO)c3)c2cc1OC | 250 to 255 °C |
| FC(F)(F)c1cccc(CSc2nnc(-c3ccc4[nH]ncc4c3)o2)c1 | 159 to 160 °C |
| COC(=O)CC1OCCN(CCc2c[nH]c3ccccc23)C1=O (centres undefined) | 144 °C |
| O=C(c1ccccc1)c1cccc(-c2cccc(Cn3cncn3)c2)c1 | 121 °C |
| COc1ccc(CCN2CCC(NC(C)=O)CC2)cc1OC | 152 to 154 °C |
| Cc1oc(-c2ccccc2)nc1COc1cncc(COc2ccccc2CC(=O)O)c1 | 207 to 208 °C |
| O=C1N(Cc2ncccc2C(F)(F)F)c2ccccc2C12COc1ccc3nonc3c12 (centres undefined) | 212 to 215 °C |
| CCCCCCCCC#CCC#CCC#CCS(=O)(=O)CC(=O)OC | 69 °C |
| O=C(Nc1cccc2c1C(=O)c1c-2n[nH]c1-c1ccc(N2CCC(N3CCCCC3)CC2)cc1)NN1CCOCC1 | 233 °C |
| O=C(N[C@H](Cc1ccc(C(F)(F)F)cc1)[C@@H](O)c1ccccc1F)c1ccc(F)c2ccccc12 (racemic) | 190 to 191 °C |
| CC(C)(C)c1ccc(C(=O)Nc2ccccc2C(=O)NCCc2ncc[nH]2)cc1 | 127 to 132 °C |
| O=C(NO)c1cnc(NS(=O)(=O)c2ccc(C(=O)Nc3ccc(Cl)c(-c4ccccn4)c3)c(Cl)c2)nc1 | 215 to 220 °C |
| CC(=O)O[C@H]1[C@H](OC(C)=O)CSC(Oc2ccc3c(ccn3C(=O)OC(C)(C)C)c2)[C@@H]1OC(C)=O (some centres undefined) | 58 to 62 °C |
| COC(=O)c1nc2cc(Cl)ccc2c(O)c1C(=O)OC | 232 to 233 °C |
| O=C1C(=O)N(c2ccccc2)C(=O)N1c1ccccc1 | 203 °C |
| Cc1c(-c2ccccc2)c(N2CC[C@H](N(C)C)C2)c2oc(N3CC(CO)C3)nc2c1C#N | 48 to 51 °C |
| COC(=O)c1ccc(C(=O)OC)c(Nc2ccccc2)c1 | 85 to 87 °C |
| OC(Cc1ccccc1)(Cn1cncn1)c1ccccc1 (centres undefined) | 134 °C |
| CC(=O)Nc1cc(C(=O)OC2OC(COC(=O)c3ccccc3)C(OC3OC4COC(c5ccncc5)OC4C(O)C3O)C(O)C2O)ccc1Cl (centres undefined) | 260 to 262 °C |
| O=C1OC(c2ccccc2)=NC1=Cc1cccnc1 | 164 °C |

| SMILES | melting point |
| --- | --- |
| Cc1cccc2c(=O)n3c(nc12)C(=O)c1ccccc1-3 | 247 to 248 °C |
| CC(C)(C)OC(=O)[C@@H](N)Cc1ccc(O)c(C(C)(C)C)c1 | 43 to 52 °C |
| CCN(c1ccccc1)C1CC(C)N(C(C)=O)c2ccc(-c3ccccc3)cc21 (centres undefined) | 121 °C |
| CC(C)(C)C(=O)N(NC(=O)c1ccccc1)C(C)(C)C | 217 to 220 °C |
| CCCCCOc1cccc(N)c1C#N | 70 to 73 °C |
| Cc1nc[nH]c1CSCCN=C(NC#N)NCCCc1c[nH]cn1 | 140 to 142 °C |
| Cn1c2ccccc2c2nc3c(C=O)cccc3nc21 | 219 to 220 °C |
| COC(=O)c1ccc2cc(-c3ccc(OCCCO)c(C45CC6CC(CC(C6)C4)C5)c3)ccc2c1 | 202 °C |
| Cc1nc(N2CCN(CC3CCCC3)C2=O)sc1C(=O)NCc1cccnc1 | 142 to 143 °C |
| COC(=O)CNC(=O)[C@H](CSC(c1ccccc1)(c1ccccc1)c1ccccc1)NC(=O)OC(C)(C)C | 167 to 169 °C |
| CC(C)c1noc(C2CCN(c3ccc4oc(-c5ccc(S(C)(=O)=O)cc5F)nc4c3)CC2)n1 | 206 to 209 °C |
| Cc1cc(CNS(=O)(=O)c2ccc(Br)s2)cc(C)n1 | 138 °C |
| CCOC(=O)C(CC=C1CCN(c2ccccc2)C1=O)Nc1cc(Cl)ccc1I (centres undefined) | 132 to 134 °C |
| O=C(NCc1ccccn1)c1cc(OCC(F)(F)F)ccc1OCc1ccccc1 | 115 to 116 °C |
| Cc1cc(Oc2ccc(Cl)cc2Cl)ccc1C#N | 52 to 55 °C |
| COC(=O)c1cccc2[nH]c3cc4c(c(OC)c3c12)CCCC4 | 194 to 196 °C |
| COc1ccccc1C1Cc2c(ccn2C)C2C(=O)NC(=O)C12 (centres undefined) | 208 to 212 °C |
| BrCC[Si](CCBr)(CCBr)CCBr | 90 to 91 °C |
| CN(C(=O)Nc1ccccc1)c1ccc(Cl)cc1C(=O)c1ccccc1 | 158 to 160 °C |
| O=C(O)CCCCCOc1ccc(OCc2ccccc2)cc1 | 100 to 101 °C |
| CSCCCn1cc(C2=C(c3cn(C)c4ccccc34)C(=O)NC2=O)c2ccccc21 | 222 to 224 °C |
| Cc1cn(C2CC(O)C(CNCc3ccc(Cl)cc3)O2)c(=O)[nH]c1=O (centres undefined) | 179 to 180 °C |
| Nc1ncnc2c1c(-c1ccc(Oc3ccccc3CN3CCCCC3)cc1)cn2C1CCOC1 (centres undefined) | 76 to 78 °C |
| CCCC(=O)c1cnc2ccc(COC(=O)c3ccccc3)cc2c1Nc1ccccc1C | 142 to 144 °C |

| SMILES | melting point |
| --- | --- |
| Cc1ccc(-c2ccc(C(=O)Nc3ccc4cc(CN5CCCC5)cnc4c3C)cc2)s1 | 220 to 221 °C |
| O=C1COCCOCC(=O)NCCOCCOCCN1 | 111 °C |
| Cc1nc2c(OCc3c(Cl)ccc(N(C)C(=O)Oc4ccc([N+](=O)[O-])cc4)c3Cl)cccn2c1Br | 229 to 230 °C |
| CCOc1nn(-c2ccc(C(F)(F)F)cn2)cc1CCCOc1ccc(CCC(=O)O)cc1OCc1ccccc1 | 115 to 116 °C |
| Cc1noc2cc3c(cc12)C1(CO3)C(=O)N(Cc2ccc(C(F)(F)F)o2)c2ccccc21 (centres undefined) | 111 to 112 °C |
| Cc1cc(C2=NN(C(=O)OC(C)(C)C)[C@H](C)Cc3cc4c(cc32)OCO4)cc(C)c1[N+](=O)[O-] | 222 to 223 °C |
| CCOC(=O)C1C(=O)N(c2ccc(Cl)c(Cl)c2)N=C1C (centres undefined) | 147 to 148 °C |
| O=C(NC1CCOCC1)c1ccc(-c2ccc3nnn(Cc4ccc5ncccc5c4)c3n2)cc1 | 202 to 205 °C |
| COc1cc(C(O)C(Cl)(Cl)Cl)cc(OC)c1O (centres undefined) | 160 to 162 °C |
| Cc1cc(-n2ccnc2)c2cccc(OCc3c(Cl)ccc(S(=O)(=O)N4CCC[C@H]4C(=O)N4CCN(C(=O)OC(C)(C)C)CC4)c3Cl)c2n1 | 98 °C |
| CCCCCCCCCCCCCCCCOC(=O)OC(C)=CC(C)=O | 33 to 35 °C |
| CC(C)S(=O)(=O)C(C#N)=Cc1c(Cl)n(C)c2ccccc12 | 141 °C |
| CS(=O)(=O)c1ccc(C2=C(c3ccc(-c4cccs4)cc3)C(=O)OC2)cc1 | 198 to 201 °C |
| COc1cc(-c2cnc3[nH]cc(C(=O)C(C)(C)OC)c3n2)cc(OC)c1OC | 238 to 239 °C |
| CC(C)(C)SC1N(C(C(=O)OCc2ccc([N+](=O)[O-])cc2)C(=O)C(C)(C)C)C(=O)C1(C)C (centres undefined) | 87.5 to 90.5 °C |
| NC(=Nc1ccc(CNC(=O)CCCCC2CCSS2)cc1)c1cccs1 (centres undefined) | 152 °C |
| CCC(O)(c1ccc(OCCN(C(C)C)C(C)C)cc1)c1ccccc1OC (centres undefined) | 46 to 47 °C |
| CCCCCCCCCCCCn1nnnc1Nc1ccccc1 | 108 to 111 °C |
| CCc1nc(/C=C/c2cn(-c3ccccc3)nc2OCc2ccc(OCc3nc(-c4ccc(C(=O)O)s4)oc3C)c(OC)c2)cs1 | 150 to 151 °C |
| O=C(O)Cc1c(Cl)nc(-c2cc([N+](=O)[O-])c(Cl)c([N+](=O)[O-])c2)n1Cc1ccccc1 | 100 to 105 °C |
| CCC1=C(C)CN(C(=O)NC2COc3cc(OC)c(S(=O)(=O)NC(=O)NC)cc3C2)C1=O (centres undefined) | 245 to 246 °C |
| O=C(Nc1cccc([N+](=O)[O-])c1)NC1N=C(c2ccccc2F)c2ccccc2N(CC(=O)N2CC3CCC(CC3)C2)C1=O (racemic) | 180 to 187 °C |
